Assay results: article PMC5361079 (Scientific Reports, 2017)
Where two headings read alike, the source gives them in different places.

Key:
[1] = tested on: hiPSC-CMs; assay: Intracellular prodrug, cleavage intermediate metabolite and NTP metabolite concentrations in hiPSC-CMs; type: in vitro ADME, human; conditions: for Effect of CatA inhibitor on sofosbuvir cleavage intermediate metabolite in hiPSC-CMs: hiPSC-CMs incubated with sofosbuvir; for Intracellular Concentration, NTP Metabolite / Intracellular Concentration, Cleavage Intermediate Metabolite: BLOQ = below 17 pmol/million cells
Description: Approximately 18 h before dosing, iCell hiPSC-CMs were switched to iCell cardiomyocyte maintenance media free of Penicillin/Streptomycin. […] […] After the corresponding treatment, cells were washed 2x with 200 μL of ice-cold magnesium- and calcium-free PBS buffer. Cells were then lysed in 100 μL of ice-cold lysis solution (70/30 methanol/water containing 20 mM EDTA and 20 mM EGTA, pH 8) by pipetting up and down 5 times. Plates were sealed and transferred on dry ice for determination of prodrug, cleavage intermediate metabolite, and NTP metabolite concentrations. Intracellular prodrug concentrations were measured using a reversed phase HPLC- high resolution mass spectrometry method. A dimethylhexylamine based ion-pairing HPLC-MS/MS method was used to measure intracellular cleavage intermediate metabolite and NTP metabolite concentrations. Intracellular concentrations (pmol/million cells) of prodrug, cleavage intermediate metabolite, and NTP metabolite were quantitated against calibration standards of the same analytes prepared from control iCell hiPSC-CM lysates.
For prodrug analyses, full scan high resolution mass spectrometry data was collected using an Exactive™ Orbitrap mass spectrometer with an electrospray source operated in the positive ion mode. Prodrug chromatograms were extracted from full scan high resolution mass spectrometry data for the masses indicated in Supplementary Table 5. Absence of endogenous interference(s) was verified by extracting the same ion from full scan high resolution mass spectrometry chromatograms of unspiked control cell lysates. For the cleavage intermediate metabolite and NTP metabolite an electrospray MS/MS method run on a SCIEX API 4000 mass spectrometer with turboV ionspray source was used in negative ion mode monitoring the transitions indicated in Supplementary Table 5. Absence of endogenous interference(s) was verified by monitoring of the same MRM transitions for unspiked control cell lysates. Measured intracellular prodrug, cleavage intermediate metabolite, and NTP metabolite concentrations (in pmol/million cells units) were tabulated (Table 2).

[2] = tested on: hiPSC-CM syncytia; assay: Spontaneous FP rate and IMP amplitude/beating rate in hiPSC-CM syncytia (RTCA CardioECR / RTCA Cardio); type: cell-based, human; conditions: for Effect on FP rate / Effect on IMP amplitude: prodrug co-administered with 0.3 μM amiodarone, steady state (4 h), spontaneously beating hiPSC-CM syncytia
Description: hiPSC-CMs (iCells®) from Cellular Dynamics International (CDI, Madison, WI, USA) were seeded onto 48-well CardioECR or 96-well Cardio E-Plates® (ACEA Biosciences Inc., San Diego, CA, USA) coated with 10 μg/mL fibronectin (Sigma Aldrich, Catalog# F1141) at 30,000 cells/well, following manufacturer’s recommendations. Cells were maintained in culture (37 °C, 5% CO2) for a period of 14 days with iCell Maintenance® media (CDI, Madison, WI, USA) exchanged every 2–3 days. Compound addition was only performed on or after Day 14 following cell seeding.
Compound stock solutions were prepared in 100% DMSO or H2O. On the day of compound addition, the media was exchanged with fresh iCell Maintenance® media and allowed to equilibrate for at least 3 h in the incubator. The plates were read on an xCELLigence® RTCA CardioECR or RTCA Cardio (ACEA Biosciences Inc., San Diego, CA, USA). Control pre-reads to establish a baseline were recorded for at least 45 minutes (4 reads at 15-min intervals) prior to compound addition. The compound stock solutions were diluted into iCell Maintenance® media and quickly added to the plate. The plate was continuously monitored for at least 18 h following compound addition. IMP data were sampled at 12 ms (83 Hz), while FP rate data were collected at 0.1 ms (10 KHz). Attachment, growth and viability of syncytia were monitored by means of the baseline IMP signal, as previously described. IMP and FP signals were only interpreted if the baseline IMP was maintained throughout the measurement period (usually ≤18 hrs) at ≥70% of the value before test compound application (pre-read value).

[3] = biological target: T1, Cav1.2 (Homo sapiens, UniProt Q13936); assay: Ca2+ influx in Cav1.2/HEK-293 cells (FDSS); type: cell-based; conditions: for IC50: Cav1.2/HEK-293, compound alone
T1 construct: expressed in transfected cells
T1 sequence (Q13936 whole entry): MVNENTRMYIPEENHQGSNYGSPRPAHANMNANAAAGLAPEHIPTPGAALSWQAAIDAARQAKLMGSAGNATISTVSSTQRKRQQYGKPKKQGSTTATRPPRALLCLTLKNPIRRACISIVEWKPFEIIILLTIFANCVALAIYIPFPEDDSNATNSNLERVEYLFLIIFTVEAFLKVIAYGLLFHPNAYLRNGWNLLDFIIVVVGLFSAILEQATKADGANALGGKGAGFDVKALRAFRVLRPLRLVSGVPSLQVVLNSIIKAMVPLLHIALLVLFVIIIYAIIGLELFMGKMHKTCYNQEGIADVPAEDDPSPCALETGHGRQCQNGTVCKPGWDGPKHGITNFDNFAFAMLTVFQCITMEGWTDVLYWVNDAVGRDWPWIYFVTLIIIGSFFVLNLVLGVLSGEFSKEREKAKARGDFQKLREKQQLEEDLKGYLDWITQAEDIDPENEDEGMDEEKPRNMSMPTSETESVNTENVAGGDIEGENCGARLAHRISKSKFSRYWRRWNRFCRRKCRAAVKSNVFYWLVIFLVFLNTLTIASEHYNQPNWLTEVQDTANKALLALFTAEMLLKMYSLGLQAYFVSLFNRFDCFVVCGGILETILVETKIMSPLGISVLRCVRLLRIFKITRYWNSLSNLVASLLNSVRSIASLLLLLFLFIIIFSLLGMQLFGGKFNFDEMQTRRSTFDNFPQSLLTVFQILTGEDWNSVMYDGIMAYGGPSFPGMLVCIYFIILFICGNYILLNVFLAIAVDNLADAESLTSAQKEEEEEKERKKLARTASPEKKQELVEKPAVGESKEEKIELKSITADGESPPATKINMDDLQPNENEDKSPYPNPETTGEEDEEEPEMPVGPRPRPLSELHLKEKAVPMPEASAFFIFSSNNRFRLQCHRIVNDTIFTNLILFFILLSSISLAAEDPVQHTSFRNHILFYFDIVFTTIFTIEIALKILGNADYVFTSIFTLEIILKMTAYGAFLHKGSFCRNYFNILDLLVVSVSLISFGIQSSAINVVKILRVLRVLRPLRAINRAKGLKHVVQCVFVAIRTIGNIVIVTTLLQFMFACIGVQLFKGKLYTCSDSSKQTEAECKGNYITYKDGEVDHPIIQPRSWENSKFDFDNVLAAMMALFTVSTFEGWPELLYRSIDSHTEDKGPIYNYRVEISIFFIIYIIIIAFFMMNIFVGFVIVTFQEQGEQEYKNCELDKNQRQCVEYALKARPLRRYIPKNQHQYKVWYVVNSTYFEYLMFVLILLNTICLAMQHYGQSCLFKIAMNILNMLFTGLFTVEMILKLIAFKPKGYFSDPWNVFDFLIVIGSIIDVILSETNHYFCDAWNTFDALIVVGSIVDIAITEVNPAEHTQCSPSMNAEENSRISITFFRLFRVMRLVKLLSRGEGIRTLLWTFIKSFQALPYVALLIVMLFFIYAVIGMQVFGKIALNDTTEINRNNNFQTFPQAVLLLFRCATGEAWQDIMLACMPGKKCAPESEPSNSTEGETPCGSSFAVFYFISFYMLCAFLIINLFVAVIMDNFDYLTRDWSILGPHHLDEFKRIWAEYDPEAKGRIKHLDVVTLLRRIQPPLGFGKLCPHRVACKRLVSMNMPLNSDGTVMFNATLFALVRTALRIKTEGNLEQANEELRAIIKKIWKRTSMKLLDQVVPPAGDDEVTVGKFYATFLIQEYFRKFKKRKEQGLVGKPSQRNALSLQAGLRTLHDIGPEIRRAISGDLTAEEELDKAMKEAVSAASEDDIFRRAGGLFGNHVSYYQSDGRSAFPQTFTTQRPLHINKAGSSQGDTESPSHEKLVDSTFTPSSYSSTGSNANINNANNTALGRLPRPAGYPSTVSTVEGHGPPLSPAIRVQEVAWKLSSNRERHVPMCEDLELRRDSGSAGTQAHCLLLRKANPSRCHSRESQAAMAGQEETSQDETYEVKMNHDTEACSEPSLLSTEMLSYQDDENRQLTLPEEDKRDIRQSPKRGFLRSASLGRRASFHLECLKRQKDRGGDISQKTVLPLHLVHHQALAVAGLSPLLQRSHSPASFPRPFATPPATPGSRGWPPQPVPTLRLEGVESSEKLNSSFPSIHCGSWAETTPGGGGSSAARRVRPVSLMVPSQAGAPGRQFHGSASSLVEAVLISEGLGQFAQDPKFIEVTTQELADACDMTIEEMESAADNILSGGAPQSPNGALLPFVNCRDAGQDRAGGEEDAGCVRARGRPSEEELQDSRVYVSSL
T1 sequence (Q08289 whole entry partner): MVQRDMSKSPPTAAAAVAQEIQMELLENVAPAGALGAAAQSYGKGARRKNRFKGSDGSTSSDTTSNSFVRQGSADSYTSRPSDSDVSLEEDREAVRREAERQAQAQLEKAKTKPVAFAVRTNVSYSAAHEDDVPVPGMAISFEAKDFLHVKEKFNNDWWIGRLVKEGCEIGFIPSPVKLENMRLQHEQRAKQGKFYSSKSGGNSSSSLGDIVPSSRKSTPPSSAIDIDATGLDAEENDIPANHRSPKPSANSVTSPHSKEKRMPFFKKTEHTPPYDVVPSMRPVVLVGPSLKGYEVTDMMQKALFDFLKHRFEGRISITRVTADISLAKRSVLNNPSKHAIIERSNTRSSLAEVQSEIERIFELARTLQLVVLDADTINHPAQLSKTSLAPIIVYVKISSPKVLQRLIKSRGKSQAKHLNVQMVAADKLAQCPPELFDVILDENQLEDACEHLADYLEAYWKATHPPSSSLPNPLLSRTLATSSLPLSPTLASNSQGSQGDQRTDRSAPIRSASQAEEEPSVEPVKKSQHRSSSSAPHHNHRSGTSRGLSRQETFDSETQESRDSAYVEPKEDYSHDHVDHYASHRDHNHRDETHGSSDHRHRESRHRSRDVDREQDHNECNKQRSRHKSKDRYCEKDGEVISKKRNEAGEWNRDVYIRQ
T1 sequence (P54289 25-946 partner limits assumed): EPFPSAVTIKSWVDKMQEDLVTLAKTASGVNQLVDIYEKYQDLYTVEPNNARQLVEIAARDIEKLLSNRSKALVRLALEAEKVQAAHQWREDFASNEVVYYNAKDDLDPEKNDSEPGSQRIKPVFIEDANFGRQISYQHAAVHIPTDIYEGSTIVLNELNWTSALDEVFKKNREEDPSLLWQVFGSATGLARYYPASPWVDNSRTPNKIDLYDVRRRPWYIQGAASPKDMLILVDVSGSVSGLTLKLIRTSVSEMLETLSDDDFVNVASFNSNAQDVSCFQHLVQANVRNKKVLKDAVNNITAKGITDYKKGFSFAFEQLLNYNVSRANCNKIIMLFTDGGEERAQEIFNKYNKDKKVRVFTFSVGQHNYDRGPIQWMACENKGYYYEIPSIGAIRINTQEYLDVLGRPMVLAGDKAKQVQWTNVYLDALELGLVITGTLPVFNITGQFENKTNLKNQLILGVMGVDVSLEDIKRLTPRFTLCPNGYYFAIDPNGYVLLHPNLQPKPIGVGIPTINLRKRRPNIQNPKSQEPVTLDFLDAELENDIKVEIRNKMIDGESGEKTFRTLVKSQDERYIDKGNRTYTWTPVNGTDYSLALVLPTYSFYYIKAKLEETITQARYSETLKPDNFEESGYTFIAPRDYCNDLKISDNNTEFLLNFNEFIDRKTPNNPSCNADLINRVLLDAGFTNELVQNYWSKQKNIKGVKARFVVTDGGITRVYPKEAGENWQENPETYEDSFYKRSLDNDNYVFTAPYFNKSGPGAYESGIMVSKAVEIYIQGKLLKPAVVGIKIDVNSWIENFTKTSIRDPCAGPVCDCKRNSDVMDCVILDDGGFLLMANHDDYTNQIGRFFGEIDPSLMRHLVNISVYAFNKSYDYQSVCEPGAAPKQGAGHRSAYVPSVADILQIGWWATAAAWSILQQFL
T1 sequence (P54289 947-1103 partner limits assumed): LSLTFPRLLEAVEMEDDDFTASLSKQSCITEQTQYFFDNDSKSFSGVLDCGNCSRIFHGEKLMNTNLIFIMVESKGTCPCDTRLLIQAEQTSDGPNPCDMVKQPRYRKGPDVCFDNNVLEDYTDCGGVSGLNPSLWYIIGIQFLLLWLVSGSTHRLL
Description: The HEK-293 cell line overexpressing Cav1.2 channel proteins was maintained in-house. HEK-293 cells transiently overexpressing Cav1.3 channel proteins were purchased from ChanTest (Charles River Laboratories, Cleveland, OH, USA). The assay was conducted as previously described. Briefly, on experiment day, cells were incubated with Codex ACTOne® dye (Codex Biosolutions, Inc., Gaithersburg, MD, USA) formulated in PPB buffer containing 25 mM potassium (in mM: 127 NaCl, 25 KCl 0.005 CaCl2, 1.7 MgCl2, 10 HEPES, pH = 7.2 with NaOH), or PPB buffer containing 1 mM potassium (in mM: 151 NaCl, 1 KCl 0.005 CaCl2, 1.7 MgCl2, 10 HEPES, pH = 7.2 with NaOH) for 1 h at room temperature, then test compounds were added for another 30-minute incubation at room temperature with a final volume of 100 μL. The Hamamatsu FDSS/μCell imaging platform simultaneously collected Ca^2+ signals from 96-well plates, at a sampling rate of 16 Hz for 20 seconds as baseline, then a trigger buffer (containing in mM: 119 NaCl, 25 KCl, 4 CaCl2, 1.7 MgCl2, 10 HEPES, pH = 7.2 with NaOH) was added using the dispenser of the FDSS/μCell instrument to generate Ca^2+ transient for 40 seconds. The peak amplitude within the latter 40 seconds minus the average amplitude of the first 20 seconds is the final Ca^2+ transient response of each well. […] Relative response of each well was calculated as follows: […]

[4] = hiPSC-CMs, 10 μM prodrug + 0.3 μM amiodarone, 4 Hours
[5] = hiPSC-CMs, 10 μM prodrug + 0.3 μM amiodarone, 30 Min
[6] = hiPSC-CMs, 10 μM prodrug alone, 4 Hours
[7] = hiPSC-CMs, 10 μM prodrug alone, 30 Min
[8] = read-out: IC50, Ca2+ influx inhibition

## CC[C@@H](C)[C@@H](O)[C@H](C)C(=O)[C@H](C)/C=C(\C)C[C@H](C)[C@@H]1OC(=O)[C@H]1CC [Ebel, ebelactone B, reference compound]
[1]
  Effect of CatA inhibitor on sofosbuvir cleavage intermediate metabolite in hiPSC-CMs: transiently inhibited the formation of the sofosbuvir cleavage intermediate metabolite to levels below the limit of quantitation after 30 min incubation
[2]; 30 min pre-incubation and continued incubation, Ebel 3 or 10 μM with sofosbuvir or MNI-1, SAR164653 30 μM with 1 μM MNI-1, 0.3 μM amiodarone
  Effect of CatA inhibitor on L-ala,SP prodrug + amiodarone effects (FP rate, IMP amplitude): concentration-dependent exacerbation

## C#C[C@]1(C)[C@@H](O)[C@@H](COP(=O)(N[C@@H](C)C(=O)OC(C)C)Oc2ccccc2)O[C@H]1n1ccc(=O)[nH]c1=O (stereo partly drawn) [MNI-1, isopropyl (2S)-2-[[[(2R,3R,4R,5R)-5-(2,4-dioxopyrimidin-1-yl)-4-ethynyl-3-hydroxy-4-methyl-tetrahydrofuran-2-yl]methoxy-phenoxy-phosphoryl]amino]propanoate]
[1]; [4]
  Intracellular Concentration, Prodrug: 70.5 ± 14.4 pmol/million cells
  Intracellular Concentration, NTP Metabolite: Detected but BLOQ
[1]; [5]
  Intracellular Concentration, Prodrug: 69.9 ± 5.3 pmol/million cells
  Intracellular Concentration, NTP Metabolite: BLOQ
[1]; [6]
  Intracellular Concentration, Prodrug: 69.1 ± 6.8 pmol/million cells
  Intracellular Concentration, NTP Metabolite: Detected but BLOQ
[1]; [7]
  Intracellular Concentration, Prodrug: 75.4 ± 2.3 pmol/million cells
  Intracellular Concentration, NTP Metabolite: BLOQ
[3]; [8]
  IC50: > 150 µM
[3]; HEK-293 cells overexpressing Cav1.2 channel proteins, pH 7.2, Cav1.2/HEK-293, 150 μM, compound alone, read-out: inhibition at maximal tested concentration
  inhibition at 30 min, 150 µM: 21%
[2]
  Effect on FP rate: Concentration-dependent, steady-state effects
  Effect on IMP amplitude: Concentration-dependent, steady-state effects

## CC(C)OC(=O)[C@H](C)NP(=O)(OC[C@H]1O[C@@H](n2ccc(=O)[nH]c2=O)[C@](C)(Cl)[C@@H]1O)Oc1ccccc1 (stereo partly drawn) [MNI-3, isopropyl (2S)-2-[[[(2R,3R,4R,5R)-4-chloro-5-(2,4-dioxopyrimidin-1-yl)-3-hydroxy-4-methyl-tetrahydrofuran-2-yl]methoxy-phenoxy-phosphoryl]amino]propanoate]
[1]; [4]
  Intracellular Concentration, Prodrug: 94.0 ± 6.0 pmol/million cells
[1]; [5]
  Intracellular Concentration, Prodrug: 89.8 ± 12.5 pmol/million cells
  Intracellular Concentration, NTP Metabolite: BLOQ
[1]; [6]
  Intracellular Concentration, Prodrug: 106.9 ± 10.1 pmol/million cells
[1]; [7]
  Intracellular Concentration, Prodrug: 97.3 ± 14.0 pmol/million cells
  Intracellular Concentration, NTP Metabolite: BLOQ
[2]
  Effect on FP rate: Concentration-dependent, steady-state effects
  Effect on IMP amplitude: Concentration-dependent, steady-state effects

## C#C[C@]1(C)[C@@H](O)[C@@H](COP(=O)(N[C@H](C)C(=O)OC(C)C)Oc2ccccc2)O[C@H]1n1ccc(=O)[nH]c1=O (stereo partly drawn) [MNI-4, isopropyl (2R)-2-[[[(2R,3R,4R,5R)-5-(2,4-dioxopyrimidin-1-yl)-4-ethynyl-3-hydroxy-4-methyl-tetrahydrofuran-2-yl]methoxy-phenoxy-phosphoryl]amino]propanoate]
[1]; [4]
  Intracellular Concentration, Prodrug: 78.7 ± 6.4 pmol/million cells
  Intracellular Concentration, Cleavage Intermediate Metabolite: BLOQ
  Intracellular Concentration, NTP Metabolite: BLOQ
[1]; [5]
  Intracellular Concentration, Prodrug: 84.8 ± 12.4 pmol/million cells
  Intracellular Concentration, Cleavage Intermediate Metabolite: BLOQ
  Intracellular Concentration, NTP Metabolite: BLOQ
[1]; [6]
  Intracellular Concentration, Prodrug: 77.4 ± 6.7 pmol/million cells
  Intracellular Concentration, Cleavage Intermediate Metabolite: BLOQ
  Intracellular Concentration, NTP Metabolite: BLOQ
[1]; [7]
  Intracellular Concentration, Prodrug: 75.4 ± 5.1 pmol/million cells
  Intracellular Concentration, Cleavage Intermediate Metabolite: BLOQ
  Intracellular Concentration, NTP Metabolite: BLOQ
[3]; n = 3 for each test, read-out: IC50 in repeat tests
  IC50: 27 to 45 µM
[3]; [8]
  IC50: ~36 µM
[2]
  Effect on FP rate: lack of effects
  Effect on IMP amplitude: lack of effects

## CC(C)OC(=O)C(C)NP(=O)(OCC1OC(n2ccc(=O)[nH]c2=O)C(C)(F)C1O)Oc1ccccc1 (stereo not shown) [MNI-5]
[1]; [6]
  Intracellular Concentration, Prodrug: 97.1 ± 36.8 pmol/million cells
  Intracellular Concentration, Cleavage Intermediate Metabolite: 121.0 ± 6.24 pmol/million cells
  Intracellular Concentration, NTP Metabolite: B LOQ
[1]; [7]
  Intracellular Concentration, Prodrug: 53.6 ± 14.2 pmol/million cells
  Intracellular Concentration, Cleavage Intermediate Metabolite: B LOQ
  Intracellular Concentration, NTP Metabolite: B LOQ
[1]; hiPSC-CMs, after 4-h incubation
  Reduction of cleavage intermediate metabolite level compared to sofosbuvir: ~ 80%

## CC(C)OC(=O)C(C)NP(=O)(OCC1OC(n2ccc(=O)[nH]c2=O)C(C)(F)C1O)Oc1ccccc1 (stereo not shown) [MNI-6]
[1]; [6]
  Intracellular Concentration, Prodrug: 65.5 ± 5.8 pmol/million cells
  Intracellular Concentration, Cleavage Intermediate Metabolite: B LOQ
  Intracellular Concentration, NTP Metabolite: B LOQ
[1]; [7]
  Intracellular Concentration, Prodrug: 46.6 ± 3.1 pmol/million cells
  Intracellular Concentration, Cleavage Intermediate Metabolite: B LOQ
  Intracellular Concentration, NTP Metabolite: B LOQ

## COc1cc(C(=O)N[C@@H](CC(=O)O)c2ccccc2C)nn1-c1ccccc1F [SAR164653, reference compound]
[1]
  Effect of CatA inhibitor on sofosbuvir cleavage intermediate metabolite in hiPSC-CMs: decreased, with concentration and time dependence
